Read-outs that look alike come from different tables or passages of the source.
What was measured:
TGase = TGase (Cavia porcellus, UniProt P08587); format: biochemical; settings: for TG level: level with DMSO control designated as 100
Method: An enzyme reaction solution (0.1 ml) (100 mM HEPES-NaOH, pH 7.5, 1 mM CaCl2, 20 μM monodansyl cadaverine, 0.05 mg/ml N,N-dimethylcasein, 5 μg/ml TGase) was introduced into wells of a 96-well plate (Nunc, 96 Well Black Plate with Clear Bottom). A test compound was added in concentrations of 0.3, 1.0, 3.0, 10, and 30 μM. The solution and the compound were sufficiently mixed while preventing foaming. The plate was set in the fluorescence drug screening system FDSS 3000 (Hamamatsu Photonics K.K.). TGase-inhibiting activity of the compound was calculated by assaying changes in fluorescence wavelength (at 340 nm) per unit time. […] The assay level at which TGase activity decreased by half in the presence of the test compound was designated as TG 50.
Hereafter, the numerals in parentheses written after the TG level, the SOCE level, and the IICR level correspond to the test compound concentrations. The number following the name of each title compound used in the Examples below represents a compound ID number designated arbitrarily by the present inventors.

[1] = test system: SOCE (store operated calcium entry) in CHO cells; experiment: Assay of SOCE (store operated calcium entry)-inhibiting action; format: cell-based, Chinese hamster; settings: CHO cells, thapsigargin
Outline: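 CHO cells in calcium-free BSS received compound, then 1 μM thapsigargin 2 min later to deplete stores; after 9 min, 2 mM calcium chloride (final) added. Percent inhibition of the rise in intracellular calcium determined at various compound concentrations.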

[2] = test system: IICR (IP3 induced calcium release) in CHO cells; experiment: Assay of IICR (IP3 induced calcium release)-inhibiting action; format: cell-based, Chinese hamster; settings: for IICR level (percentage of inhibition): CHO cells, 10 μM ATP
Outline: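 CHO cell medium replaced with calcium-containing BSS; compound added 1 min later, then 10 μM ATP after a further 2 min. Percent inhibition of the ATP-evoked rise in intracellular calcium determined at each compound concentration.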

With “2-(N-isopropyl-2-hydroxyethyl)aminoethylferrocenylketone [Example 287]” the TG level (TGase; test compound 3 μmol) was 100, the TG level (TGase; test compound 30 μmol) was 60.8 and the “SOCE level (percentage of inhibition)” value ([1]; test compound 30 μmol) was 0%. For the same molecule, the “SOCE level (percentage of inhibition)” value ([1]; test compound 100 μmol) was 10%, the “IICR level (percentage of inhibition)” value ([2]; test compound 10 μmol) was 20% and the “IICR level (percentage of inhibition)” value ([2]; test compound 30 μmol) was 40%. The “IICR level (percentage of inhibition)” value ([2]; test compound 100 μmol) was 40%.

“2-(N-isopropylbenzyl)aminoethyl-1-methyl-2-pyrrylketone [Example 195]” was tested, and the TG level (TGase; test compound 3 μmol) was 73, the TG level (TGase; test compound 10 μmol) was 62.6 and the TG level (TGase; test compound 30 μmol) was 6.4. For the same molecule, the “SOCE level (percentage of inhibition)” value ([1]; test compound 10 μmol) was 0%, the “SOCE level (percentage of inhibition)” value ([1]; test compound 30 μmol) was 0% and the “SOCE level (percentage of inhibition)” value ([1]; test compound 100 μmol) was 10%. The “IICR level (percentage of inhibition)” value ([2]; test compound 10 μmol) was 0%, the “IICR level (percentage of inhibition)” value ([2]; test compound 30 μmol) was 0% and the “IICR level (percentage of inhibition)” value ([2]; test compound 100 μmol) was 0%.

In the case of “2-(N-isopropylbenzyl)aminoethylferrocenylketone [Example 286]”, the TG level (TGase; test compound 3 μmol) is reported as 99.2, the TG level (TGase; test compound 30 μmol) is reported as 54.2 and the “SOCE level (percentage of inhibition)” value ([1]; test compound 30 μmol) is reported as 0%. For the same molecule, the “SOCE level (percentage of inhibition)” value ([1]; test compound 100 μmol) was 0%, the “IICR level (percentage of inhibition)” value ([2]; test compound 10 μmol) was 50% and the “IICR level (percentage of inhibition)” value ([2]; test compound 30 μmol) was 80%. The “IICR level (percentage of inhibition)” value ([2]; test compound 100 μmol) was 50%.

“2-bis(N-2-hydroxyethyl)aminoethylferrocenylketone [Example 288]” was tested, and the TG level (TGase; test compound 3 μmol) was 94.9, the TG level (TGase; test compound 30 μmol) was 44.1 and the “SOCE level (percentage of inhibition)” value ([1]; test compound 30 μmol) was 10%. For the same molecule, the “SOCE level (percentage of inhibition)” value ([1]; test compound 100 μmol) was 40%, the “IICR level (percentage of inhibition)” value ([2]; test compound 10 μmol) was 40% and the “IICR level (percentage of inhibition)” value ([2]; test compound 30 μmol) was 50%. For the same molecule, the “IICR level (percentage of inhibition)” value ([2]; test compound 100 μmol) was 60%.

`O=C(CCNCCSSCCNCCC(=O)c1ccc(Br)s1)c1ccc(Br)s1` [Example 340] was tested, and the TG level (TGase; test compound 3 μmol) was 0.8, the TG level (TGase; test compound 10 μmol) was 2.5 and the TG level (TGase; test compound 30 μmol) was 4.3. The “SOCE level (percentage of inhibition)” value ([1]; test compound 10 μmol) was 0%, the “SOCE level (percentage of inhibition)” value ([1]; test compound 30 μmol) was 18% and the “SOCE level (percentage of inhibition)” value ([1]; test compound 100 μmol) was 65%. For the same molecule, the “IICR level (percentage of inhibition)” value ([2]; test compound 10 μmol) was 0%, the “IICR level (percentage of inhibition)” value ([2]; test compound 30 μmol) was 40% and the “IICR level (percentage of inhibition)” value ([2]; test compound 100 μmol) was 60%.

With `O=C(CCNCCCCNCCC(=O)c1ccc(Br)s1)c1ccc(Br)s1` [Example 356] the TG level (TGase; test compound 3 μmol) was 93, the TG level (TGase; test compound 10 μmol) was 22.6 and the TG level (TGase; test compound 30 μmol) was 3.6. The “SOCE level (percentage of inhibition)” value ([1]; test compound 10 μmol) was 0%, the “SOCE level (percentage of inhibition)” value ([1]; test compound 30 μmol) was 3% and the “SOCE level (percentage of inhibition)” value ([1]; test compound 100 μmol) was 10%. The “IICR level (percentage of inhibition)” value ([2]; test compound 10 μmol) was 0%, the “IICR level (percentage of inhibition)” value ([2]; test compound 30 μmol) was 0% and the “IICR level (percentage of inhibition)” value ([2]; test compound 100 μmol) was 10%.

For `CCc1nccnc1C(=O)CCN(Cc1ccccc1)C(C)(C)C` [Example 8658, 2-(N-t-butylbenzyl)aminoethyl-2-(3-ethyl)-pyrazylketone], the “TG-activity-inhibiting action or protein-crosslinking-inhibiting action (in words)” value (TGase) was “strongly” and the “IICR-inhibiting activity compared with SOCE-inhibiting activity (in words)” value [2] was “higher than SOCE-inhibiting activity”.

With `CC(C)N(CCC(=O)c1cc(Cl)sc1Cl)Cc1ccccc1` [Example 8659, 2-(N-isopropylbenzyl)aminomethyl-3-(2,5-dichlorothiophenyl)ketone] the “TG-activity-inhibiting action or protein-crosslinking-inhibiting action (in words)” value (TGase) was “strongly” and the “IICR-inhibiting activity compared with SOCE-inhibiting activity (in words)” value [2] was “higher than SOCE-inhibiting activity”.

For `Cc1nc(C)c(C(=O)CCN(Cc2ccccc2)C(C)C)s1` [Example 8666, 2-(N-benzylisopropyl)aminoethyl-5-(2,4-dimethylthiazolyl)ketone], the “TG-activity-inhibiting action or protein-crosslinking-inhibiting action (in words)” value (TGase) was “strongly” and the “IICR-inhibiting activity compared with SOCE-inhibiting activity (in words)” value [2] was “higher than SOCE-inhibiting activity”.

For `CN(CCC(=O)c1ccncc1)Cc1ccccc1` [Example 8673, 2-(N-methylbenzyl)aminoethyl-4-pyridylketone], the “TG-activity-inhibiting action or protein-crosslinking-inhibiting action (in words)” value (TGase) was “strongly” and the “IICR-inhibiting activity compared with SOCE-inhibiting activity (in words)” value [2] was “higher than SOCE-inhibiting activity”.

For `CC(C)(C)N(CCC(=O)c1cccnc1)Cc1ccccc1` [Example 8702, 2-(N-benzyl-t-butyl)aminoethyl-3-pyridylketone], the “TG-activity-inhibiting action or protein-crosslinking-inhibiting action (in words)” value (TGase) was “strongly” and the “IICR-inhibiting activity compared with SOCE-inhibiting activity (in words)” value [2] was “higher than SOCE-inhibiting activity”.

In the case of `CN(CCO)CCC(=O)c1ccco1` [Example 8707, 2-(N-2-hydroxyethylmethyl)aminoethyl-2-furylketone], the “TG-activity-inhibiting action or protein-crosslinking-inhibiting action (in words)” value (TGase) is reported as “strongly” and the “IICR-inhibiting activity compared with SOCE-inhibiting activity (in words)” value [2] is reported as “higher than SOCE-inhibiting activity”.

For `CC(C)(C)N(CCC(=O)c1nccs1)Cc1ccccc1` [Example 8729, 2-(N-benzyl-t-butyl)aminoethyl-2-thiazolylketone], the “TG-activity-inhibiting action or protein-crosslinking-inhibiting action (in words)” value (TGase) was “strongly” and the “IICR-inhibiting activity compared with SOCE-inhibiting activity (in words)” value [2] was “higher than SOCE-inhibiting activity”.

`CC(C)(C)N(CCC(=O)c1ccc(Cl)s1)Cc1ccccc1` [Example 8756, 2-(N-t-butylbenzyl)aminoethyl-5-chloro-2-thienylketone] was tested, and the “TG-activity-inhibiting action or protein-crosslinking-inhibiting action (in words)” value (TGase) was “strongly” and the “IICR-inhibiting activity compared with SOCE-inhibiting activity (in words)” value [2] was “higher than SOCE-inhibiting activity”.

`CC(C)N(CCC(=O)c1cc2ccccc2s1)Cc1ccccc1` [Example 8759, 2-(N-isopropylbenzyl)aminoethyl-2-benzothienylketone] was tested, and the “TG-activity-inhibiting action or protein-crosslinking-inhibiting action (in words)” value (TGase) was “strongly” and the “IICR-inhibiting activity compared with SOCE-inhibiting activity (in words)” value [2] was “higher than SOCE-inhibiting activity”.

In the case of `CC(C)(C)N(CCC(=O)c1cc2ccccc2s1)Cc1ccccc1` [Example 8761, 2-(N-t-butylbenzyl)aminoethyl-2-benzothienylketone], the “TG-activity-inhibiting action or protein-crosslinking-inhibiting action (in words)” value (TGase) is reported as “strongly” and the “IICR-inhibiting activity compared with SOCE-inhibiting activity (in words)” value [2] is reported as “higher than SOCE-inhibiting activity”.

`CCN(CCC(=O)c1nccs1)Cc1ccccc1` [Example 8765, 2-(N-ethylbenzyl)aminoethyl-2-thiazolylketone] was tested, and the “TG-activity-inhibiting action or protein-crosslinking-inhibiting action (in words)” value (TGase) was “strongly” and the “IICR-inhibiting activity compared with SOCE-inhibiting activity (in words)” value [2] was “higher than SOCE-inhibiting activity”.

For `O=C(CCN(CCO)Cc1ccccc1)c1nccs1` [Example 8766, 2-(N-2-hydroxyethylbenzyl)aminoethyl-2-thiazolylketone], the “TG-activity-inhibiting action or protein-crosslinking-inhibiting action (in words)” value (TGase) was “strongly” and the “IICR-inhibiting activity compared with SOCE-inhibiting activity (in words)” value [2] was “higher than SOCE-inhibiting activity”.

In the case of `CC(C)N(CCC(=O)c1ccc(Br)s1)Cc1ccccc1` [Example 8768, 2-(N-isopropylbenzyl)aminoethyl-5-bromo-2-thienylketone], the “TG-activity-inhibiting action or protein-crosslinking-inhibiting action (in words)” value (TGase) is reported as “strongly” and the “IICR-inhibiting activity compared with SOCE-inhibiting activity (in words)” value [2] is reported as “higher than SOCE-inhibiting activity”.

For `CCCCN(CCO)CCC(=O)c1ccc(Br)s1` [Example 8769, 2-(N-2-hydroxyethylbutyl)aminoethyl-5-bromo-2-thienylketone], the “TG-activity-inhibiting action or protein-crosslinking-inhibiting action (in words)” value (TGase) was “strongly” and the “IICR-inhibiting activity compared with SOCE-inhibiting activity (in words)” value [2] was “higher than SOCE-inhibiting activity”.

With `CC(C)(C)N(CCC(=O)c1ccc(C#N)cc1)Cc1ccccc1` [Example 8789, 2-(N-t-butylbenzyl)aminoethyl-4-cyanophenylketone] the “TG-activity-inhibiting action or protein-crosslinking-inhibiting action (in words)” value (TGase) was “strongly” and the “IICR-inhibiting activity compared with SOCE-inhibiting activity (in words)” value [2] was “higher than SOCE-inhibiting activity”.

`CC(C)N(CCC(=O)c1ccc(C#N)cc1)Cc1ccccc1` [Example 8803, 2-(N-benzylisopropyl)aminoethyl-4-cyanophenylketone] was tested, and the “TG-activity-inhibiting action or protein-crosslinking-inhibiting action (in words)” value (TGase) was “strongly” and the “IICR-inhibiting activity compared with SOCE-inhibiting activity (in words)” value [2] was “higher than SOCE-inhibiting activity”.

In the case of `Cc1ccsc1C(=O)CCN(Cc1ccccc1)C(C)(C)C` [Example 8816, 2-(N-benzyl-t-butyl)aminoethyl-3-methyl-2-thienylketone], the “TG-activity-inhibiting action or protein-crosslinking-inhibiting action (in words)” value (TGase) is reported as “strongly” and the “IICR-inhibiting activity compared with SOCE-inhibiting activity (in words)” value [2] is reported as “higher than SOCE-inhibiting activity”.

In the case of `Cc1csc(C(=O)CCN(Cc2ccccc2)C(C)(C)C)c1` [Example 8817, 2-(N-benzyl-t-butyl)aminoethyl-4-methyl-2-thienylketone], the “TG-activity-inhibiting action or protein-crosslinking-inhibiting action (in words)” value (TGase) is reported as “strongly” and the “IICR-inhibiting activity compared with SOCE-inhibiting activity (in words)” value [2] is reported as “higher than SOCE-inhibiting activity”.

In the case of `Cc1ccc(C(=O)CCN(Cc2ccccc2)C(C)(C)C)s1` [Example 8818, 2-(N-benzyl-t-butyl)aminoethyl-5-methyl-2-thienylketone], the “TG-activity-inhibiting action or protein-crosslinking-inhibiting action (in words)” value (TGase) is reported as “strongly” and the “IICR-inhibiting activity compared with SOCE-inhibiting activity (in words)” value [2] is reported as “higher than SOCE-inhibiting activity”.

In the case of `CCCCN(CCCC)CCC(=O)c1ccc(Br)s1` [Example 8848, 2-(N,N-di-n-butyl)aminoethyl-5-bromo-2-thienylketone], the “TG-activity-inhibiting action or protein-crosslinking-inhibiting action (in words)” value (TGase) is reported as “strongly” and the “IICR-inhibiting activity compared with SOCE-inhibiting activity (in words)” value [2] is reported as “higher than SOCE-inhibiting activity”.

For `CCC(C)N(CCC(=O)c1ccc(Br)s1)C(C)CC` (stereo not drawn) [Example 8849, 2-(N,N-di-sec-butyl)aminoethyl-5-bromo-2-thienylketone], the “TG-activity-inhibiting action or protein-crosslinking-inhibiting action (in words)” value (TGase) was “strongly” and the “IICR-inhibiting activity compared with SOCE-inhibiting activity (in words)” value [2] was “higher than SOCE-inhibiting activity”.

Reference: patent US8937091B2 (Japan Science and Technology Agency, priority 2009, dated 2015)
